Results: patent US20020091086A1, “Peptides that block viral infectivity and methods of use thereof” (priority 1999, published 2002)
Peptide text beside a SMILES is read from it.

Columns and labels:
[1] = target: T1, BSA (Bos taurus, UniProt P02769); assay: dialysis-based binding assay with 14C-GPG-NH2, BSA; conditions: dialysis 2 days at 4° C. against 27.5 μM 14C-GPG-NH2; buffer 1.816
T1 construct: purchased Sigma
Experimental: A dialysis-based binding assay was conducted using a dialysis membrane with a pore size of less than 10 kD. (Slide-A-Lyzer, Pierce). Fifty microliters of a 10 μM stock of the recombinant proteins p24 and gp120 (gifts from the AIDS program, NCIB) and BSA (Sigma) were introduced into separate dialysis membranes and the proteins were dialyzed at 4° C. for 2 days against a 500 ml solution composed of 150 mM NaCl and 50 mM Tris-HCl, pH 7.4 buffer and 27.5 μM of ^14C-GPG-NH2 (Amersham Ltd. UK). Subsequently, ten or five microliter aliquots of the dialyzed p24, gp120, and BSA were removed and mixed with 3 ml of ReadySafe (Beckman) in a scintillation vial. The C^14 was then detected by scintillation counting.

[2] = system: HIV-1 isolate p7261 (low AZT); assay: resistant HIV-1 isolates in PBMC, p24 ELISA; format: cell-based; conditions: GPG 100 μM, 14 days post infection
[3] = system: GPG-deleted mutant mp10; assay: infectivity in MT-2 cells, p24 ELISA, GPG-deleted mutant mp10; format: cell-based, HIV-1
Experimental: Accordingly, the ability of GPG-NH2 to inhibit the infectivity of wild-type and V3-loop deletion mutants (GPG domain) in MT-2 cells was determined. In these experiments, approximately 200,000 MT-2 cells were infected with HIV-1Bru wild-type and GPG-deleted mutants mp8 and mp10 at 25 TCID50 to test the inhibitory effect of GPG-NH2 The MT-2 cells were resuspended in 1 ml of RPMT 1640 medium supplemented with 10% (v/v) heat-inactivated fetal bovine serum (FBS, GIBCO), penicillin (100μ/ml), streptomycin (100μ/ml) and Polybrene (Sigma 2 μg/ml) with or without the presence of GPG-NH2 at concentration 20 of μM and 100 μM. Thereafter, viruses were added at 25 TCID50 in a volume of 20-30 μl. Cells were incubated with virus at 37° C. for 16 hr then loosely pelleted by centrifugation at 170×g for 7 minutes. The cells were then washed three times in RPMI medium without peptides at room temperature by cell sedimentation at 170×g for 7 minutes as above. After the final wash, the cells were resuspended in RPMI culture medium in 24-well plate (Costar corporation) then kept at 37° C. in 5% CO2 with humidity. Culture supernatants were collected when medium was changed at day 4, 7, 11 and 14 post infection. To monitor the replication of virus, HIV-1 p24 antigen protein in the supernatants from day 7 and 14 was assayed by a ELISA kit (Abbott Laboratories) which has a linear dose-response range from 20 pg to 640 pg of p24 per ml and the p24 amount can be determined with aid of the regression line.

[4] = system: influenza; assay: inhibition of influenza virus; format: cell-based
[5] = system: polio viruses; format: cell-based
[6] = system: normal human lymphomonocytic cells (PBMC); assay: viability of cultured monocytes and lymphocytes; format: cell-based; conditions: as high as 2 mM; exposure as long as 4 days
Experimental: Next, the toxicity to normal human lymphomonocytic cells (PBMC) was examined. […] The effect of GPG-NH2 on in vitro proliferative response of human mononuclear cells was also tested.

[7] = stability in human plasma by thin layer chromatography; format: in vitro ADME; conditions: 37° C.; 30 minutes, two hours, eight hours
Experimental: The stability of GPG-NH2 in human plasma was also assessed chemically by thin layer chromatography (TLC). (See FIG. 7). In this experiment, ^14C GPG-NH2 was incubated with human plasma at 37° C. for 30 minutes, two hours, or eight hours and then the proteins were separated by TLC and were visualized by exposure of the chromatograph to autoradiography film. As shown in FIG. 7 (lanes Hp0, Hp0.5, Hp2, and Hp8), a slight shift in mobility of the small peptide was observed. […] Mass-spectrometry analysis (electrospray analysis) of the TLC spots verified that all spots, including the spot with increased mobility, were GPG-NH2.

[8] = acid stability in 50 mM KCl and 0.1M HCl by TLC; format: physicochemical; conditions: up to 24 hours
Experimental: Because an oral administration of a pharmaceutical comprising a small peptide is desired, the acid stability of small peptides was assessed by incubating ^14C-labelled GPG-NH2 in a solution of 50 mM KCl and 0.1M HCl for various time periods. After acid hydrolysis, the radiolabeled tripeptide was analyzed by thin layer chromatography (TLC) and the HPTLC plate was developed with 25% methanol: 25%isopropanol: 15% butanol: 35% (0.1N HOAc and 0.1N NaOAc).

[9] = radioactivity associated with rat plasma proteins, SDS/PAGE; format: in vivo, rats; conditions: 60 minutes after feeding
Experimental: The proteins from whole plasma were also analyzed by column chromatography and fractionated and crude protein were separated by sodium dodecyl sulfate polyacrylamide gel (10%) electrophoresis (SDS/PAGE). Rat plasma samples were partially purified with size exclusion ([…], Phamacia) chromatography (0.4×6 cm), in a buffer of 10 mM Tris-HCl pH 8.3 and 50 mM KCl. Eluate was then separated by anionic exchange chromatography by using an increasing stepwise gradient of NaCl in a buffer of 10 mM Tris-HCl pH8.3 (Sepharose CL-6B DEAE, 0.4×6 cm). The eluate was monitored and pooled according to the radioactivity (Ready Safe, Beckman; LKB 1218, Sweden). The protein fractions with strong signal were separated on a 10% SDS-PAGE and were subsequently blotted onto PVDF (polyvinylidene difluoride, BioRad) membrane before being subjected to Edman N-terminal amino acid sequencing (Applied Biosystems Procise Sequencer, USA).
The proteins marked B1-B4 were sequenced and determined to be alpha-1 antitrypsin (Bi), pentaxin (B-2), C-reactive protein (B-3), and B-4 could not be identified. These proteins are all synthesized in the liver. One interpretation is that hydrolyzed GPG-NH2 was reutilized in the liver protein synthesis. […]

[10] = system: gp160

Q: Which results are given for NCC(=O)N1CCC[C@H]1C(=O)NCC(N)=O [GPG-NH2, glycyl-prolyl-glycine amide] (H-Gly-Pro-Gly-NH2)?
A: radioactive GPG-NH2 associated with BSA [1]: 1.674 μCi/ml; % reduction [2]: (100%); HIV-1 p24 [2]: <500 pg/mL; p24 ([3]; GPG 20 μM, Day 7): 1560 pg/mL; reduction (%) ([3]; GPG 20 μM, Day 7): 50%; p24 ([3]; GPG 20 μM, Day 14): 51500 pg/mL; reduction (%) ([3]; GPG 20 μM, Day 14): 89%; p24 ([3]; GPG 100 μM, Day 7): 173 pg/mL; reduction (%) ([3]; GPG 100 μM, Day 7): 94%; p24 ([3]; GPG 100 μM, Day 14): 47700 pg/mL; reduction (%) ([3]; GPG 100 μM, Day 14): 90%; inhibition of influenza virus [4]: failed inhibit either influenza or polio viruses; inhibition of polio virus [5]: failed inhibit either influenza or polio viruses; viability of cultured monocytes and lymphocytes [6]: did not appreciably affect the viability; TLC mobility after incubation in human plasma [7]: no further change in mobility was observed at up to 8 hours; TLC mobility after acid exposure [8]: did not affect the mobility; radioactivity covalently associated with plasma proteins [9]: little radioactivity was observed to be covalently associated with proteins; N- or O-linked glycosylation of the virus protein [10]: no effect
